From patent US9890117B2, “Benzamide compounds and related methods of use” (Northwestern University, priority 2012, dated 2018)

What was measured:
SIRT2 = target: T1, SIRT2 (Homo sapiens, UniProt Q8IXJ6); test: Fluor-de-Lys biochemical sirtuin deacetylation assay, SIRT2; settings: 10 μM
T1 construct: recombinant active enzymes SIRT1, SIRT2, and the catalytically active fragment of SIRT3
T1 sequence (Q8IXJ6 1-389): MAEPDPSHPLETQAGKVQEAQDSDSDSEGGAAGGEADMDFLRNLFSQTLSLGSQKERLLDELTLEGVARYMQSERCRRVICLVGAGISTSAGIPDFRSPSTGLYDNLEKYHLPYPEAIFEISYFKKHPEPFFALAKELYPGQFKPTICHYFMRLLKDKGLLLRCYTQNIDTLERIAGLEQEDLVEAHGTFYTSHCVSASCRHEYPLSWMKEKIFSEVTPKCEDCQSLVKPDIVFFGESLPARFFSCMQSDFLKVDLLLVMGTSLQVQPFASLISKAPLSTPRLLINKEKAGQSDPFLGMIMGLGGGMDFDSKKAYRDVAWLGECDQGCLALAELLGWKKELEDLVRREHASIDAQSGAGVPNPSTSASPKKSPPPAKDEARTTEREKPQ

melting point | inhibition at 10 µM (SIRT2) | Compound
185 to 187 °C | 57% | N#Cc1ccc(NC(=O)c2cccc(OCc3cc(F)cc(F)c3)c2)cc1 [Compound 216Ae, N-(4-cyanophenyl)-3-((3,5-difluorobenzyl)oxy)benzamide]
79 to 81 °C | 93% | CC(=O)c1ccc(C(C)Oc2cccc(C(=O)Nc3ccc(C#N)cc3)c2)cc1 (centres unmarked) [Compound 216Ac, 3-(1-(4-acetylphenyl)ethoxy)-N-(4-cyanophenyl)benzamide]
228 to 229 °C (dec.) | 0% | CC(=O)c1ccc(COc2cncc(C(=O)Nc3ccc(C#N)cc3)c2)cc1 [Compound 216u, 5-((4-acetylbenzyl)oxy)-N-(4-cyanophenyl)nicotinamide]
209 to 210 °C | 39% | CS(=O)(=O)c1ccc(COc2cccc(C(=O)Nc3ccc(C#N)cc3)c2)cc1 [Compound 216k, N-(4-cyanophenyl)-3-((4-(methylsulfonyl)benzyl)oxy)benzamide]
176 to 177 °C | 75% | CN(Cc1ccc(F)cc1)c1cccc(C(=O)Nc2ccc(C#N)cc2)c1 [Compound 221c, N-(4-cyanophenyl)-3-((4-fluorobenzyl)(methyl)amino)benzamide]
168 to 169 °C | 34% | N#Cc1ccc(NC(=O)c2cccc(OCc3ccc(Cl)cn3)c2)cc1 [Compound 216n, 3-((5-chloropyridin-2-yl)methoxy)-N-(4-cyanophenyl)benzamide]
173 to 174 °C | 41% | N#Cc1ccc(NC(=O)c2cccc(NCc3ccc(F)cc3)c2)cc1 [Compound 221a, N-(4-cyanophenyl)-3-((4-fluorobenzyl)amino)benzamide]
149 to 150 °C | 64% | N#Cc1ccc(NC(=O)c2cccc(OCc3ccc(F)cc3)c2)cc1 [Compound 216g, N-(4-cyanophenyl)-3-((4-fluorobenzyl)oxy)benzamide]
181 to 183 °C | 84% | CC(=O)c1ccc(C(C)Oc2cncc(C(=O)Nc3ccc(C#N)cc3)c2)cc1 (centres unmarked) [Compound 216Ab, 5-(1-(4-acetylphenyl)ethoxy)-N-(4-cyanophenyl)nicotinamide]
151 to 152 °C | 69% | C[C@@H](Oc1cncc(C(=O)Nc2ccc(C#N)cc2)c1)c1ccc(F)cc1 [Compound 216r, (R)—N-(4-cyanophenyl)-5-(1-(4-fluorophenyl)ethoxy)nicotinamide]
138 to 139 °C | 56% | N#Cc1ccc(NC(=O)c2cccc(OCc3ccc(OC(F)(F)F)cc3)c2)cc1 [Compound 216m, N-(4-cyanophenyl)-3-((4-(trifluoromethoxy)benzyl)oxy)benzamide]
167 to 168 °C | 67% | N#Cc1ccc(NC(=O)c2cccc(OCc3ccc(C(F)(F)F)cc3)c2)cc1 [Compound 216j, N-(4-cyanophenyl)-3-((4-(trifluoromethyl)benzyl)oxy)benzamide]
146 to 147 °C | 22% | CSc1ccc(COc2cccc(C(=O)Nc3ccc(C#N)cn3)c2)cc1 [Compound 216b, N-(5-cyanopyridin-2-yl)-3-((4-(methylthio)benzyl)oxy)benzamide]
147 to 148 °C | 60% | CSc1ccc(COc2cccc(C(=O)Nc3ccc(C#N)cc3)c2)cc1 [Compound 216a, N-(4-cyanophenyl)-3-((4-(methylthio)benzyl)oxy)benzamide]
135 to 136 °C | 50% | COc1ccc(COc2cccc(C(=O)Nc3ccc([S+](C)[O-])cc3)c2)cc1 (centres unmarked) [Compound 216h, 3-((4-methoxybenzyl)oxy)-N-(4-(methylsulfinyl)phenyl)benzamide]
132 to 134 °C | 8% | COc1ccc(COc2cccc(C(=O)Nc3ccc(C#N)cn3)c2)cc1 [Compound 216d, N-(5-cyanopyridin-2-yl)-3-((4-methoxybenzyl)oxy)benzamide]

The remaining lines, values behind:

Compound | melting point | inhibition at 10 µM (SIRT2)
CN(c1ccc(CN)cc1)S(=O)(=O)c1cccc(C(=O)Nc2ccc(C#N)cc2)c1.Cl [Compound 203Af, 3-(N-(4-(aminomethyl)phenyl)-N-methylsulfamoyl)-N-(4-cyanophenyl)benzamide hydrochloride] | 169 to 171 °C | 15%
CN(c1ccc(S(C)(=O)=O)cc1)S(=O)(=O)c1cccc(C(=O)Nc2ccc(Cl)cc2F)c1 [Compound 203Ae, N-(4-chloro-2-fluorophenyl)-3-(N-methyl-N-(4-(methylsulfonyl)phenyl)sulfamoyl)-benzamide] | 182 to 183 °C | 26%
CN(c1ccc(Br)cc1)S(=O)(=O)c1cccc(C(=O)Nc2ccc(F)cc2F)c1 [Compound 203u, 3-(N-(4-bromophenyl)-N-methylsulfamoyl)-N-(2,4-difluorophenyl)benzamide] | 119 to 120 °C | 22%
N#Cc1ccc(NC(=O)c2ccnc(SCc3ccc(F)cc3)c2)cc1 [Compound 211e, N-(4-cyanophenyl)-2-((4-fluorobenzyl)thio)isonicotinamide] | 160 to 162 °C | 74%
CCN(c1ccc(O)cc1)S(=O)(=O)c1cccc(C(=O)Nc2ccc(C#N)cc2)c1 [Compound 203Ay, N-(4-cyanophenyl)-3-(N-ethyl-N-(4-hydroxyphenyl)sulfamoyl)benzamide] | 102 to 104 °C | 40%
CSc1ccc(CSc2cccc(C(=O)Nc3ccc(C#N)cn3)c2)cc1 [Compound 211a, N-(5-cyanopyridin-2-yl)-3-((4-(methylthio)benzyl)thio)benzamide] | 161 to 162 °C | 63%
CCCN(CCC)S(=O)(=O)c1cccc(C(=O)Nc2ccc(Br)cc2)c1 [Compound 203d, N-(4-bromophenyl)-3-(N,N-dipropylsulfamoyl)benzamide] | 160 to 162 °C | 9%
CN(c1ccc(S(C)(=O)=O)cc1)S(=O)(=O)c1cccc(NC(=O)c2ccc(Br)cc2)c1 [Compound 207b, 4-bromo-N-(3-(N-methyl-N-(4-(methylsulfonyl)phenyl)sulfamoyl)phenyl)benzamide] | 216 to 218 °C | 57%
Cc1cc(Cl)ccc1NC(=O)c1cccc(S(=O)(=O)N(C)c2ccc(Br)cc2)c1 [Compound 203n, 3-(N-(4-bromophenyl)-N-methylsulfamoyl)-N-(4-chloro-2-methylphenyl)benzamide] | 163 to 164 °C | 18%
Cc1cc(F)ccc1N(C)C(=O)c1cccc(S(=O)(=O)N(C)c2ccc(Br)cc2)c1 [Compound 203m, 3-(N-(4-bromophenyl)-N-methylsulfamoyl)-N-(4-fluoro-2-methylphenyl)-N-methylbenzamide] | 104 to 105 °C | 28%
CN(c1ccc([S+](C)[O-])cc1)S(=O)(=O)c1cc(C(=O)Nc2ccc(C#N)cc2)ccn1 (centres unmarked) [Compound 203Ar, N-(4-cyanophenyl)-2-(N-methyl-N-(4-(methylsulfinyl)phenyl)sulfamoyl)-isonicotinamide] | 243 to 245 °C (dec.) | 20%
CN(c1ccc(S(C)(=O)=O)cc1)S(=O)(=O)c1cccc(NC(=O)c2ccc(S(C)(=O)=O)cc2)c1 [Compound 207d, N-(3-(N-methyl-N-(4-(methylsulfonyl)phenyl)sulfamoyl)phenyl)-4-(methylsulfonyl)benzamide] | 213 to 215 °C (dec.) | 26%
CN(c1ccc(Cl)cc1)S(=O)(=O)c1cccc(C(=O)Nc2ccc(Br)cc2F)c1 [Compound 203w, N-(4-bromo-2-fluorophenyl)-3-(N-(4-chlorophenyl)-N-methylsulfamoyl)benzamide] | 126 to 127 °C | 31%
CN(C(=O)c1cccc(S(=O)(=O)N(C)c2ccc(S(C)(=O)=O)cc2)c1)c1ccc(Cl)cc1F [Compound 203Ah, N-(4-chloro-2-fluorophenyl)-N-methyl-3-(N-methyl-N-(4-(methylsulfonyl)phenyl)-sulfamoyl)benzamide] | 159 to 160 °C | 16%
Cc1cc(Cl)ccc1N(C)C(=O)c1cccc(S(=O)(=O)N(C)c2ccc(Br)cc2)c1 [Compound 203l, 3-(N-(4-bromophenyl)-N-methylsulfamoyl)-N-(4-chloro-2-methylphenyl)-N-methylbenzamide] | 124 to 125 °C | 25%
CCCN(CCC)S(=O)(=O)c1cccc(C(=O)Nc2cccc(Br)c2)c1 [Compound 203f, N-(3-bromophenyl)-3-(N,N-dipropylsulfamoyl)benzamide] | 105 to 107 °C | 60%
CN(c1ccc(Br)cc1)S(=O)(=O)c1cccc(C(=O)Nc2ccc(Cl)cc2F)c1 [Compound 203q, 3-(N-(4-bromophenyl)-N-methylsulfamoyl)-N-(4-chloro-2-fluorophenyl)benzamide] | 117 to 118 °C | 29%
CN(c1ccc([S+](C)[O-])cc1)S(=O)(=O)c1cc(C(=O)Nc2ccc(Cl)cc2F)ccn1 (centres unmarked) [Compound 203Aq, N-(4-chloro-2-fluorophenyl)-2-(N-methyl-N-(4-(methylsulfinyl)phenyl)sulfamoyl)-isonicotinamide] | 178 to 179 °C | 14%
